Tests used:
[1] = Cytotoxicity against human HuH7 cells assessed as cell viability at 500 uM after 24 hrs by MTT assay relative to control; type: cell-based, Huh-7
[2] = Cytotoxicity against human HET-1A cells assessed as cell viability at 500 uM after 24 hrs by MTT assay relative to control; type: cell-based
[3] = Cytotoxicity against human HET-1A cells assessed as cell viability after 24 hrs by MTT assay; type: cell-based
[4] = Cytotoxicity against human HET-1A cells assessed as cell viability at >1 mM after 24 hrs by MTT assay; type: cell-based

Row | Structure (SMILES) | viability at 24 h, 500 µM [1] | viability at 24 h, 500 µM [2] | CC50 at 24 h [3] | Activity [4]
1 | C[C@H](CCC(=O)O)[C@H]1CC[C@H]2[C@@H]3CC[C@@H]4C[C@H](O)CC[C@]4(C)[C@H]3C[C@H](O)[C@]12C [DEOXYCHOLIC ACID] | 57% | 41.2% | 257 µM | –
2 | C[C@H](CCC(=O)O)[C@H]1CC[C@H]2[C@@H]3[C@@H](O)C[C@@H]4C[C@H](N=[N+]=[N-])CC[C@]4(C)[C@H]3CC[C@]12C | 26.6% | 36.8% | 45 µM | –
3 | C[C@H](CCC(=O)O)[C@H]1CC[C@H]2[C@@H]3[C@@H](O)C[C@@H]4C[C@H](O)CC[C@]4(C)[C@H]3C[C@H](O)[C@]12C | 82.3% | 80.8% | – | –
4 | C[C@H](CCC(N)=O)[C@H]1CC[C@H]2[C@@H]3CC[C@@H]4C[C@H](O)CC[C@]4(C)[C@H]3C[C@H](O)[C@]12C | 25.2% | 38.6% | 39 µM | –
5 | C[C@H](CCC(=O)O)[C@H]1CC[C@H]2[C@@H]3CC[C@@H]4C[C@H](O)CC[C@]4(C)[C@H]3CC[C@]12C [LITHOCHOLIC ACID] | 63.7% | 41.7% | 25 µM | –
6 | C[C@H](CCC(=O)O)[C@H]1CC[C@H]2[C@@H]3[C@@H](O)C[C@@H]4C[C@@H](N=[N+]=[N-])CC[C@]4(C)[C@H]3CC[C@]12C | 101% | 30.3% | 37 µM | –
7 | C[C@H](CCC(=O)O)[C@H]1CC[C@H]2[C@@H]3C[C@H](O)[C@@H]4C[C@H](O)CC[C@]4(C)[C@H]3CC[C@]12C [HYODEOXYCHOLIC_ACID] | 73.8% | 88.2% | – | –
8 | C[C@H](C#N)[C@H]1CC[C@H]2[C@@H]3[C@@H](O)C[C@@H]4C[C@H](O)CC[C@]4(C)[C@H]3CC[C@]12C | 87.3% | 80.5% | – | –
9 | COC(=O)CC[C@@H](C)[C@H]1CC[C@H]2[C@@H]3[C@@H](O)C[C@@H]4C[C@H](O)CC[C@]4(C)[C@H]3CC[C@]12C | 81.2% | 94.3% | – | –
10 | C[C@H](CCCO)[C@H]1CC[C@H]2[C@@H]3[C@@H](O)C[C@@H]4C[C@H](O)CC[C@]4(C)[C@H]3CC[C@]12C | 44.5% | 97.5% | – | –
11 | C[C@H](CCC(=O)NCC(=O)O)[C@H]1CC[C@H]2[C@@H]3[C@@H](O)C[C@@H]4C[C@H](O)CC[C@]4(C)[C@H]3CC[C@]12C [GLYCOURSODEOXYCHOLIC ACID] | 104% | 109% | – | –
12 | C[C@H](C(=O)O)[C@H]1CC[C@H]2[C@@H]3[C@@H](O)C[C@@H]4C[C@H](O)CC[C@]4(C)[C@H]3CC[C@]12C | 74.8% | 80.5% | 799 µM | –
13 | C[C@H](CCC(=O)O)[C@H]1CC[C@H]2[C@@H]3C(=O)C[C@@H]4C[C@H](O)CC[C@]4(C)[C@H]3CC[C@]12C | 75.6% | 76.9% | – | –
14 | C[C@H](CCC(=O)O)[C@H]1CC[C@H]2[C@@H]3C(=O)C[C@@H]4CC(=O)CC[C@]4(C)[C@H]3CC[C@]12C | 54.6% | 93.5% | – | –
15 | C[C@H](CCC(=O)NCC(=O)O)[C@H]1CC[C@H]2[C@@H]3[C@H](O)C[C@@H]4C[C@H](O)CC[C@]4(C)[C@H]3C[C@H](O)[C@]12C [GLYCOCHOLIC ACID] | 87.7% | 105% | – | –
16 | C[C@H](CCC(=O)O)[C@H]1CC[C@H]2[C@@H]3[C@@H](O)C[C@@H]4CCCC[C@]4(C)[C@H]3CC[C@]12C | 23.7% | 39.9% | 30 µM | –

Row | Structure (SMILES) | viability at 24 h, 500 µM [1] | viability at 24 h, 500 µM [2] | CC50 at 24 h [3] | Activity [4]
17 | C[C@H](CCC(=O)O)[C@H]1CC[C@H]2[C@@H]3[C@H](O)C[C@@H]4C[C@H](O)CC[C@]4(C)[C@H]3C[C@H](O)[C@]12C [CHOLIC ACID] | 90.8% | 102% | 1080 µM | –
18 | CC(=O)O[C@@H]1CC[C@@]2(C)[C@H](CC(=O)[C@@H]3[C@@H]2CC[C@]2(C)[C@@H]([C@H](C)CCC(=O)O)CC[C@@H]32)C1 | 77.7% | 47.2% | 366 µM | –
19 | C[C@H](CCC(=O)O)[C@H]1CC[C@H]2[C@@H]3C(=O)C[C@@H]4CC(=O)CC[C@]4(C)[C@H]3CC(=O)[C@]12C [DEHYDROCHOLIC ACID] | 54.4% | 111% | – | –
20 | C[C@H](CC(=O)O)[C@H]1CC[C@H]2[C@@H]3[C@@H](O)C[C@@H]4C[C@H](O)CC[C@]4(C)[C@H]3CC[C@]12C [NORUCHOLIC ACID] | 71.8% | 88.8% | – | –
21 | C[C@H](CCC(=O)O)[C@H]1CC[C@H]2[C@@H]3[C@H](O)C[C@@H]4C[C@H](O)CC[C@]4(C)[C@H]3CC[C@]12C [CHENODIOL] | 72.3% | 42.2% | 216 µM | –
22 | C[C@H](CCC(=O)NCC(=O)O)[C@H]1CC[C@H]2[C@@H]3[C@H](O)C[C@@H]4C[C@H](O)CC[C@]4(C)[C@H]3CC[C@]12C [GLYCOCHENODEOXYCHOLATE] | 105% | 130% | 729 µM | Toxic
23 | C[C@H](CCC(=O)O)[C@H]1CC[C@H]2[C@@H]3[C@@H](N=[N+]=[N-])C[C@@H]4C[C@H](O)CC[C@]4(C)[C@H]3CC[C@]12C | 64.1% | 29% | 99 µM | –
24 | C[C@H](CCC(=O)NCC(=O)O)[C@H]1CC[C@H]2[C@@H]3CC[C@@H]4C[C@H](O)CC[C@]4(C)[C@H]3C[C@H](O)[C@]12C [GLYCODEOXYCHOLATE] | 105% | 111% | 1240 µM | Toxic
25 | COC(=O)CC[C@@H](C)[C@H]1CC[C@H]2[C@@H]3CC[C@@H]4C[C@H](O)CC[C@]4(C)[C@H]3C[C@H](O)[C@]12C [METHYL DEOXYCHOLATE] | 48.8% | 28.1% | 46 µM | –
26 | C[C@H](CCC(=O)O)[C@H]1CC[C@H]2[C@@H]3CC[C@@H]4C[C@H](O)CC[C@]4(C)[C@H]3C[C@@H](O)[C@]12C [LAGODEOXYCHOLATE] | 89% | 59% | 389 µM | –
27 | C[C@H](CCC(=O)O)[C@H]1CC[C@H]2[C@@H]3CC[C@@H]4C[C@@H](N=[N+]=[N-])CC[C@]4(C)[C@H]3C[C@H](O)[C@]12C | 108% | 35.4% | 97 µM | –
28 | C[C@H](CCCN=[N+]=[N-])[C@H]1CC[C@H]2[C@@H]3[C@@H](O)C[C@@H]4C[C@H](O)CC[C@]4(C)[C@H]3CC[C@]12C | 45.1% | 75.9% | 688 µM | –
29 | C[C@H](CCC#N)[C@H]1CC[C@H]2[C@@H]3[C@@H](O)C[C@@H]4C[C@H](O)CC[C@]4(C)[C@H]3CC[C@]12C | 85.2% | 94% | – | –
30 | C[C@H](CCC(=O)O)[C@H]1CC[C@H]2[C@@H]3CC[C@@H]4C[C@H](O)CC[C@]4(C)[C@H]3CC(=O)[C@]12C | 80.6% | 81.8% | – | –
31 | C[C@H](CCC(=O)O)[C@H]1CC[C@H]2[C@@H]3CC[C@@H]4C[C@H](N=[N+]=[N-])CC[C@]4(C)[C@H]3C[C@H](O)[C@]12C | 37.1% | 30.7% | 71 µM | –
32 | C[C@H](CCC(=O)O)[C@H]1CC[C@H]2[C@@H]3[C@@H](O)C[C@@H]4C[C@H](O)CC[C@]4(C)[C@H]3CC[C@]12C [URSODIOL] | 74% | 78.8% | 1310 µM | –
